Source: patent US20240109843A1, “BENZALDEHYDE COMPOUNDS WITH DIRECT POLYMER DESTABILIZING EFFECTS TO TREAT SICKLE CELL DISEASE” (VIRGINIA COMMONWEALTH UNIVERSITY, priority 2018, published 2024)

Experiments:
[1] = biological target: T1, Hb (Homo sapiens, UniProt P69905); test: Drug partitioning studies, fixed and unfixed Hb adducts in non-sickling AA blood; format: cell-based; parameters: Hemoglobin modification, studies using non-sickling AA blood; from tissue; host or cells: non-sickling (AA) human blood, red blood cells; details: 2 mM
How it was run: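 Non-sickling blood was incubated with test molecules and lysed either in water (unfixed) or in 50 mM sodium borohydride (fixed). Hb adducts were quantified by cation-exchange HPLC as a fraction of total Hb. The partitioning ratio is fixed over unfixed modification and reflects intracellular Hb binding after RBC membrane permeation.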
Target sequence in this assay (P69905 2-142 limits assumed): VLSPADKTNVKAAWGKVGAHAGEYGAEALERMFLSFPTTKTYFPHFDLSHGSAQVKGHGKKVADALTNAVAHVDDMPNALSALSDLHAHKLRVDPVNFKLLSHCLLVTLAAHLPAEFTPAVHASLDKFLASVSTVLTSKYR
Target sequence in this assay (P68871 2-147 partner limits assumed): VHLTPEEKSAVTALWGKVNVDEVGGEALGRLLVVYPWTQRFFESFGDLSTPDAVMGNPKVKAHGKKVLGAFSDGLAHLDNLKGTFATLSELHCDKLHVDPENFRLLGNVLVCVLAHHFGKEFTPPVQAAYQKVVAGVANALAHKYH

[2] = biological target: T1, Hb; test: Hb modification (drug-adduct formation) in SS blood suspensions by cation-exchange HPLC; format: binding; parameters: Blood suspensions from subjects with homozygous SCD; from tissue; host or cells: blood suspensions (20% hematocrit) from donors with homozygous SCD; lysates of the treated red cells; details: 2 mM, 4 biological replicates
How it was run: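 Homozygous SCD blood at 20% hematocrit in Hemox buffer with glucose and BSA was incubated with compound (0-2 mM) 1 h at 37° C in air, then up to 2 h hypoxia (2.5% O2). Lysates, with or without 50 mM sodium borohydride reduction, were analysed by weak cation-exchange HPLC at A410 nm for Hb-drug adducts.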
Target sequence in this assay (P69905 2-142): as the sequence (P69905 2-142 limits assumed) above
Target sequence in this assay (P68871 with tags, fused parts or gaps E7V partner): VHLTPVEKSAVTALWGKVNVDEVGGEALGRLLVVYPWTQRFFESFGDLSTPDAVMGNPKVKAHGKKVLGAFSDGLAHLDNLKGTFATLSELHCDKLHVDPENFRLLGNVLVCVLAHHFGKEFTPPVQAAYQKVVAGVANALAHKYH

[3] = Single-dose oral pharmacokinetics in rats; format: in vivo, Sprague Dawley rats; details: oral administration, data not shown
Procedure: Single doses of each compound were administered as oral suspensions by gavage in 0.5% carboxy methylcellulose at 100 mg/kg. Whole blood levels were collected for at least 72 hours after dose administration. Bioanalyses were performed with liquid chromatography-tandem mass spectrometry […].
Single-dose pharmacokinetics (PK) in male Sprague Dawley (SD) rats (n=4) were assessed for each compound, and the maximum or peak whole blood concentration and area under the curve are shown in Table 5.

[4] = test system: RBCs from donors with homozygous SCD; test: Sickle inhibition in SS blood suspensions under hypoxia (2.5% oxygen); format: cell-based; details: Homo sapiens, 2 mM, 4 biological replicates, read-out: % Sickling Inhibition (Hypoxia)
Procedure: All compounds (Comp 1-13) and comparator molecules (VZHE-039, PP-14, INN-310, and Voxelotor) were evaluated following established procedures. Blood samples from individual donors with homozygous SCD (obtained with informed consent) were diluted using Hemox buffer solution with the addition of glucose (10 mM) and BSA (0.2%) to adjust hematocrit of the blood suspensions to 20%, which standardizes the procedure to normalize the ratio of RBCs to drug, for assay consistency and reproducibility. Briefly, blood suspensions were incubated under room air in the presence of various concentrations of test compounds (0-2 mM) at 37° C. for 1 hour in 96-well round bottom plates. Subsequently, the suspensions were incubated with a hypoxic gas mixture (2.5% Oxygen gas/balance Nitrogen gas) at 37° C. for up to 2 hours prior to fixation with 2% glutaraldehyde solution without exposure to air. The fixated blood aliquots were evaluated by microscopic morphological analysis (image analysis on Image J software) to identify the proportion of sickled and non-sickled RBCs, and sickle inhibition calculated based on the % change from negative control (DMSO).

[5] = biological target: T2, sickle Hb (Homo sapiens, UniProt P69905); test: Oxygen equilibrium (P50 shift) of lysates from treated sickle blood; format: cell-based; details: 0.5, 1 and 2 mM, SS blood
T2 construct: Blood suspensions from subjects with homozygous SCD; from tissue; host or cells: blood suspensions (20% hematocrit) from donors with homozygous SCD; lysates of the treated red cells
T2 sequence (P69905 2-142 limits assumed): as the sequence (P69905 2-142 limits assumed) above
Procedure: Blood suspensions from subjects with homozygous SCD (resuspended in Hemox™ buffer to a final hematocrit 20%) were incubated under air in the absence or presence of the compounds (0.5 mM, 1 mM and 2 mM) at 37° C. for 1 h to ensure that binding had attained equilibrium. The suspensions were then incubated under hypoxic conditions (2.5% oxygen/97.5% nitrogen) at 37° C. for 1 h. Aliquot samples were fixed with 2% glutaraldehyde solution without exposure to air, and then subjected to microscopic morphological analysis of bright field images (at 40× magnification) of single layer cells on an Olympus BX40 microscope fitted with an Infinity Lite B camera (Olympus), and the coupled Image Capture software. The residual samples were washed in phosphate-buffer saline, and hemolyzed in hypotonic lysis buffer for subsequent Hb-modification and oxygen equilibrium analyses.
For oxygen equilibrium studies, approximately 100 μL aliquot samples from the above clarified lysate were added to 4 mL of 0.1M potassium phosphate buffer, pH 7.0, in cuvettes and subjected to hemoximetry analysis using a Hemox™ Analyzer (TCS Scientific Corp.) to assess P50 shifts. Degree of P50 shift (ΔP50) was expressed as percentage fractions of control DMSO-treated samples.

[6] = test system: sickle red blood cells; test: Antisickling study with human sickle blood under 2.5% oxygen; format: cell-based; details: Homo sapiens, Erythrocyte, sickle RBCs, 2.5% oxygen, read-out: sickling inhibition
How it was run: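 Homozygous SCD blood at 20% hematocrit preincubated with compound (0.5, 1, 2 mM) under air for 1 h at 37 °C, then under 2.5% O2 for 1 h. Cells fixed in 2% glutaraldehyde without air exposure; sickling scored by bright-field morphology at 40×.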

- Fixed Adducts (%) ([1]; 6 biological replicates): 96.1 ± 1.1%
- Unfixed Adduct (%) ([1]; 6 biological replicates): 91.8 ± 11.6%
- Partitioning Ratio (%) ([1]; fixed relative to unfixed adducts): 102.2 ± 8.0%
- Hb Modification (%) [2]: 85.3 ± 11.3%
SMILES: COC(=O)c1ccc(COc2cccc(O)c2C=O)cn1 [PP14, Methyl 5-((2-formyl-3-hydroxyphenoxy)methyl)picolinate]
- metabolism upon oral administration [3]: rapidly metabolizes into its carboxylic acid metabolite
- inhibition at 2000 µM [4]: 83.1 ± 6.9%
- increase of Hb affinity for oxygen in sickle blood (in words) [5]: only marginally increasing Hb affinity for oxygen
- inhibition at 500 µM ([6]; 0.5 mM): > 35%
- inhibition at 1000 µM ([6]; 1 mM): > 70%
